Laboratory results as given in patent US20060088545A1, “Use of inhibitors of the protease of the human immunodeficiency virus (hiv) to block cell migration and/or invasion, tissue infiltration and oedema for the therary of diseases associated therewith” (priority 2001, published 2006).
Entries after “also recorded” stand apart in the source; their conditions may differ.

Legend:
[1] = tested on: endothelial/lung carcinoma hybrid (Ea-hy 926) cells; assay: Cell growth assay of Ea-hy 926 cells; type: cell-based, human; conditions: 1 μM; 5 days
Experimental: (§1) The assays have been performed essentially as described in key to FIG. 1. No growth factors were added to EA-hy 926 cells since they produce factors which mediates cell growth in autocrine fashion (Edgell et al., 1983, Albini et al., PNAS 1995, Albini et al., Nat Med 1996). […] The assays have been performed essentially as described in legend to FIG. 3. Average and variation range of two independent experiments each performed in duplicate are shown.

[2] = tested on: dermal microvascular endothelial cells (H-DMVEC); assay: Invasion assay of dermal microvascular endothelial cells in response to bFGF; type: cell-based, human
Experimental: Both assays were performed by the Boyden chamber separated in two compartments by polycarbonate filters with 12 μm pores (Nucleoprobe, Cabin John, Md.), coated with collagen IV (Collaborative Biomedical Products) for migration, or with collagen IV and Matrigel together for invasion, as described previously (Barillari et al., 1999b). […] After 5 hours (migration) or 6 hours (Invasion) of incubation, the non-migrated cells present on the top surface of the filters were mechanically removed, while the migrated cells on the bottom surface were fixed in methanol and stained with toluidine blue (Sigma Chemical Co., St. Louis, Mo.). The cells present in 5-10 microscopic fields of the filters, chosen at random, were counted as described previously (Barillari et al., 1999b).
Basal invasion in the absence of bFGF was assumed as 100%.

[3] = tested on: hepato-carcinoma cells (SK-Hep-1); assay: Cell growth assay of SK-Hep-1 cells; type: cell-based, human; conditions: 10 μM; 4 days
Experimental: FIG. 16. […] Shown is the result of a representative cell growth assay performed on the hepato-carcinoma cells. Human hepato-carcinoma cells (SK-Hep-1; from ATCC) were plated in triplicate (8×10^4 cells/well) in 12-well plates. […] After 4 days of culture, the cells were counted by trypan blue dye staining, as previously described (Ensoli et al., 1990; Ensoli et al., 1994b): For all the in vitro studies HIV-PI as endotoxin-free pure powder (a kind gift of Merck Sharp & Dohme and Roche) were resuspended in distilled water. Assays were repeated at least three times.

[4] = tested on: hepato-carcinoma (SK-Hep-1) cells; assay: Tumour lesions induced by SK-Hep-1 cells in nude mice; type: in vivo; conditions: 5×10^6 cells/site; daily treatment
Experimental: Twenty-four hours before cell injection, the mice have received sub-lethal irradiation (400 G) in order to increase the tumour up-take. The treatment with HIV-PI or saline solution continued until sacrifice. The size of the lesions present at the injection site was evaluated daily by caliper measurement. External lesion area was then calculated as the product of the two major lesion diameters. The mean size (cm^2) of the lesions present at the injection site is shown.
To determine whether HIV-PI could inhibit the growth of malignant solid and lymphoid tumours, nude mice were inoculated with hepato-carcinoma cells (SK-Hep-1), lung carcinoma cells (A549), breast adeno-carcinoma cells (MDA-MB-468), myelo-monocytic leukaemia cells (U937), and T lymhocytic leukaemia cells (Jurkat).

IL-6 = IL-6 production by KS cells (ELISA); type: cell-based, human; conditions: 0.1, 1 and 10 μM, 5 days + 24 hours
Experimental: After 24 hours of incubation, the supernatants of the cultures were tested by ELISA (R & D Systems, Minneapolis, Minn., USA) to determine the quantity of IL-6 present in the medium. The quantity of IL-6 is expressed in pg/ml of supernatant. The same tests were carried out for bFGF, VEGF, IL-1α and IL-1β by means of commercial ELISA kits.
KS cells secrete cytokines with an inflammatory, oedemigenic, angiogenic and proliferative activity with autocrine and paracrine effects (Ensoli and Stürzl, 1998). These factors mediate all the processes required for KS-like lesions formation (angiogenesis, cellular proliferation and invasion, inflammatory Infiltration, oedema) and vascular permeability and oedema induced by KS cells in nude mice. […] The quantity of bFGF, VEGF, IL-1 and IL-6 was dosed with immuno-enzymatic trials in the supernatants of the KS cells after 24 hours of culture in the absence of serum and in the continuous presence of the two HIV-PI (ELISA). […] Furthermore IL-6 plays a key role in the multicentric Cstleman's diseases and in the growth of lymphomas (Tosato et al., 1993; Peterson and Frizzera, 1993; Asou et al., 1998; Ramsay et al., 1994), another type of tumour whose incidence is reduced in patients treated with HIV-PI (International Collaboration on HIV and Cancer 2000).

KS cells [5] = assay: KS cell invasion of matrigel, Boyden chamber, bFGF chemo-attractant; type: cell-based, human; conditions: KS3, KS8, KS12 strains; dose-dependent
Experimental: Both drugs inhibited the capacity of the KS cells to invade the Matrigel membrane in a dose-dependent manner. In particular, both the HIV-PI inhibited invasion as compared to the levels observed in control KS cells (p<0.05).
The assay was performed as described in FIG. 3. […] The cells were harvested and then plated in duplicate (5×10^5 in a culture medium containing 0.05% BSA) in the upper compartment of the Boyden chamber, always in the presence of HIV-PI or buffer. bFGF (20 ng/ml) was placed in the bottom compartment as a chemo-attractant.
After 6 hours the cells that invaded the matrigel membrane were stained and counted as described in the key to FIG. 3.
In contrast, both drugs inhibited KS cell capability of invading a matrigel substrate in a dose-dependent manner. In particular, both HIV-PI inhibit the invasion of KS cells by 30-40% (p<0.05) (Table 4 and FIG. 13).
Migration and invasion assays were carried out essentially as detailed in the key to FIGS. 2 and 3.

KS cells [6] = assay: KS cell proliferation (trypan blue dye exclusion); type: cell-based, human; conditions: 7 days
[7] = tested on: endothelial/lung carcinoma hybrid (Ea-hy 926) cells; assay: Invasion assay of Ea-hy 926 cells in response to bFGF; type: cell-based, human; conditions: 1 μM
Experimental: as §1

[8] = tested on: myelo-monocytic leukaemia (U937) cells; assay: Invasion assay of U937 cells in response to bFGF; type: cell-based, human; conditions: 1 or 10 μM
Experimental: Shown is the result of a representative invasion assay performed on the myelo-monocytic leukaemia cells U937. […] The invasion assays were performed in the Boyden chamber. Polycarbonate filters (5 μM pores; Nucleoprobe, Cabin John, Md.) were coated first with collagen IV and then with Matrigel (Collaborative Biomedical Products) as described previously (Barillari et al., 1999b). […] Human recombinant bFGF (50 ng/ml) was placed in the lower compartment as chemoattractant. […] Louis, Mo.). Ten random filter fields were counted by light microscopy as described previously (Barillari et al., 1999b). Assays were repeated two times.

| Structure (SMILES) | proliferation [1] | invasion in response to bFGF [2] | proliferation [3] | development of tumour lesions (lesion size) [4] | production of IL-6 by KS cells (IL-6) | production of IL-6 by KS cells (IL-6; listed as indinavir) | invasive capacity of KS cells (KS cells [5]) | KS cell proliferation (viable cells, trypan blue) (KS cells [6]) | invasion in response to bFGF [7] | invasive capacity in response to bFGF [8] |
| --- | --- | --- | --- | --- | --- | --- | --- | --- | --- | --- |
| CC(C)(C)NC(=O)[C@@H]1CN(Cc2cccnc2)CCN1C[C@@H](O)C[C@@H](Cc1ccccc1)C(=O)N[C@H]1c2ccccc2C[C@H]1O [Indinavir, indinavir] | do not interfere | inhibit | do not interfere | inhibit | inhibited | reduced | inhibit | no effect | inhibit | inhibit |
| CC(C)(C)NC(=O)[C@@H]1C[C@@H]2CCCC[C@@H]2CN1C[C@@H](O)[C@H](Cc1ccccc1)NC(=O)[C@H](CC(N)=O)NC(=O)c1ccc2ccccc2n1 [Saquinavir, saquinavir] | do not interfere | inhibit | do not interfere | inhibit | reduced; also recorded: inhibited |  | inhibit | no effect | inhibit | inhibit |
